From paper PMC6309520 (Cell chemical biology, 2018)

Biological target: T1, ARH3 (ADP-ribosyl hydrolase 3, ADPRHL2) (Homo sapiens, UniProt Q9NX46)
T1 sequence (Q9NX46 1-363): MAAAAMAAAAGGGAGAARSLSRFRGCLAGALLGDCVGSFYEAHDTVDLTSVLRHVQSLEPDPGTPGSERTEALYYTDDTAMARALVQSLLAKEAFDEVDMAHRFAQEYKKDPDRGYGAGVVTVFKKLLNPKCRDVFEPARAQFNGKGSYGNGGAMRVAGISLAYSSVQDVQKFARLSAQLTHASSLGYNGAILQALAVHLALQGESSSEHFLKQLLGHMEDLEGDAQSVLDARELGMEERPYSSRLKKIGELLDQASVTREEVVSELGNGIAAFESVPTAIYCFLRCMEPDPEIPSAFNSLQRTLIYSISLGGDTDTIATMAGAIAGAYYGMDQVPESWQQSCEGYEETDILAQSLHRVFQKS
Assay: Michaelis-Menten kinetics
Format: biochemical

`O=c1cc(C(F)(F)F)c2ccc(O[C@H]3O[C@H](COP(=O)(O)OP(=O)(O)OC[C@H]4O[C@@H](n5cnc6c(=O)[nH]cnc65)[C@H](O)[C@@H]4O)[C@@H](O)[C@H]3O)cc2o1` [compound 12, TFMU-IDPr] showed a Km of 312 ± 30 µM.
